Structures can show the parent of a compound that is named as a salt. {Cy5} = Cy5 fluorescent dye label
Columns and labels:
[1] = tested on: CYP 450 1A1 (rat); assay: Gene expression analysis on ER chip: CYP 450 induction in rat liver; conditions: rat liver cDNA, 80 mg/kg daily on 4 consecutive days, normalized treated/control, mean of 10 replicates
Description: (§1) Sensor platforms (dimensions 18×18 mm^2) of the type described with reference to FIG. 2 wee first sonicated twice in chloroform (FLUKA, “purriss.”) and subsequently twice in isopropanol (Merck, “Uvasol”); each for 15 min. The platform were then dried in vacuum and cleaned in a UV cleaner for 30 min (Boeckel industries Inc, model 135500). O-xylene was heated to 75° C. (stirring) and 2% v/v 3-glycidoxypropyl trimethoxysilane (Fluka, “purum”) as well as 0.2% v/v N-ethyldiisopropylamine (Fluka, “purum”) were added to the heated solvent (stirring). The platforms were mounted into racks and then incubated for 7 h in the solution at 75° C. (stirring). Subsequently, the platforms were sonicated three times in fresh acetonitrile (Fluka, “HPLC grade”), each for 15 min. The platforms were then sonicated in a solution of 2% v/v 3-amino-1-propanol (Fluka, “purum”) in acetonitrile for 15 min and then incubated in the same solution over night at room temperature (stirring). Next day, the platforms were first sonicated three times for 15 min in fresh isopropanol (Fluka, “HPLC grade”) and then three times for 15 min in flesh methanol (Merck, “Uvasol”). Finally, the platforms were dried and stored in vacuum. b) Immobilization of Recognition Elements Arrays consisting of 10 different cDNAs (each cDNA 10 replicates: CYP 450 1A1, CYP 450 2B1 EST., CYP 450 2B1, CYP 450 2B2, CYP 450 3A1 human, CYP 450 3A2, CYP 450 4A1, β-actin, GAPDH, external standard) were printed on the platforms with an ink-jet printer (Microdrop GmbH, Norderstedt, Germany). The concentration of the cDNA solutions was 50 ng/μL. The diameter (10 ink-jet droplets/position) was about 250 μm and pitch of the spots was about 500 μm. Therefore, the overall dimension of the 10×10 arrays was about 5×5 mm^2. The arrays were printed in the centre of the platforms with the dimensions (18×18 mm^2). Subsequently, the platforms were incubated over night in a closed container in saturated water vapor atmosphere. Next day, the incubated chips can be baked for a defined period, say 1 minute at 80° C.

[2] = tested on: CYP 450 2B1 (rat); assay: as above; conditions: rat liver cDNA, 80 mg/kg daily on 4 consecutive days, normalized treated/control, mean of 10 replicates
Description: as §1

[3] = tested on: CYP 450 2B1 EST.(rat); assay: as above; conditions: rat liver cDNA, 80 mg/kg daily on 4 consecutive days, normalized treated/control, mean of 10 replicates
Description: as §1

[4] = tested on: CYP 450 2B2 (rat); assay: as above; conditions: rat liver cDNA, 80 mg/kg daily on 4 consecutive days, normalized treated/control, mean of 10 replicates
Description: as §1

[5] = tested on: CYP 450 3A1 (human); assay: as above; conditions: rat liver cDNA, 80 mg/kg daily on 4 consecutive days, normalized treated/control, mean of 10 replicates
Description: as §1

[6] = tested on: CYP 450 3A2 (rat); assay: as above; conditions: rat liver cDNA, 80 mg/kg daily on 4 consecutive days, normalized treated/control, mean of 10 replicates
Description: as §1

[7] = tested on: CYP 450 4A1 (rat); assay: as above; conditions: rat liver cDNA, 80 mg/kg daily on 4 consecutive days, normalized treated/control, mean of 10 replicates
Description: as §1

[8] = tested on: GAPDH (rat); assay: as above; conditions: rat liver cDNA, 80 mg/kg daily on 4 consecutive days, normalized treated/control, mean of 10 replicates
Description: as §1

[9] = tested on: β-actin (rat); assay: as above; conditions: rat liver cDNA, 80 mg/kg daily on 4 consecutive days, normalized treated/control, mean of 10 replicates
Description: as §1

[10] = tested on: cPM (capture perfect match) oligonucleotide; assay: Oligonucleotide microchip hybridization (SNP discrimination), cPM capture spots; assay type: binding; conditions: 30 pM analyte, 30 min incubation, room temperature, fluorescence at resonance position
Description: (§2) Sensor platforms (dimensions 18×18 mm2) of the type described with reference to FIG. 2 we first sonicated twice in chlororform (FLUKA, “purum”) and subsequently twice in isopropanol (Merck, “Uvasol”), each 15 min. […] O-xylene was heated to 75° C. […] (stirring). Subsequently, the platforms were washed three times with fresh acetonitrile (Fluka, “HPLC grade”) each for 15 min. Finally the platforms were dried and stored under vacuum. b. Immobilization of Capture Elements
(§3) Two different amino-modified oligonucleotides (capture probes) were printed in a checkerboard-like layout (5×5=25 spots) onto the silanized platforms. […]
(§4) The concentration of the analyte solutions was 30 pM each. f. […] After 30 min of incubation, the platform was washed with 1 ml of HB and a fluorescence image (“PM” in FIG. 9a) was taken in the resonance position of the chip. Subsequently, the bound fluorescence labeled oligonucleotides were removed (stripped) by injection of 2×1 ml of an aqueous 50% urea solution with 2 min of delay between the injections. After additional 2 min the chip was washed by injection of 2×1 ml HB with 2 min delay between the injections and a fluorescence image (“regeneration” in FIG. 9b) was taken in the resonance position of the chip. […] After 30 min of incubation, the platform was again washed with 1 ml of 1B and a fluorescence image (“MM” in FIG. 9c) was taken in the resonance position of the chip. […]

[11] = tested on: cMM (capture mismatch) oligonucleotide; assay: Oligonucleotide microchip hybridization (SNP discrimination), cMM capture spots; assay type: binding; conditions: 30 pM analyte, 30 min incubation, room temperature, fluorescence at resonance position
Description: as §2, §3, §4

[12] = tested on: cPM and cMM capture oligonucleotides; assay: Oligonucleotide microchip SNP discrimination, cPM versus cMM spots; assay type: binding; conditions: 30 pM analyte, 30 min incubation, room temperature
Description: as §2
Two different amino-modified oligonucleotides (capture probes) were printed in a checkerboard-like layout (5×5=25 spots) onto the silanized platforms. A GMS 417 ring-pin arrayer was used for the printing (Genetic Microsystems, Boston, Mass.). The concentration of the oligonucleotides used as capture molecules was 100 nmol/ml. Diameter of the spots was 125 micrometer with 500 micrometer centre-to-centre distance. The 2 oligonucleotides were called cPM (“capture perfect match”) and cMM (“capture mismatch”) and differ only in one base:
cPM and cMM were labeled with an amino group at the 5′ end which enables covalent binding of the oligonucleotides to the epoxy-functionalized platforms. […] Next day the chips were dried and then washed with 1 ml of aqueous 50% urea solution. Alternatively, an aqueous bovine serum albumine solution (BSA, 1 mg/ml) was used. After blocking the chips were flushed with deionized water and then dried with nitrogen flow. c. Detection Set-Up The CCD set-up described in the previous example was used. d. Chip Cartridge The cartridge described in the previous example was used. e. Analytes/Samples […]
The concentration of the analyte solutions was 30 pM each. f. […] After 30 min of incubation, the platform was washed with 1 ml of HB and a fluorescence image (“PM” in FIG. 9a) was taken in the resonance position of the chip. Subsequently, the bound fluorescence labeled oligonucleotides were removed (stripped) by injection of 2×1 ml of an aqueous 50% urea solution with 2 min of delay between the injections. After additional 2 min the chip was washed by injection of 2×1 ml HB with 2 min delay between the injections and a fluorescence image (“regeneration” in FIG. 9b) was taken in the resonance position of the chip. […] After 30 min of incubation, the platform was again washed with 1 ml of 1B and a fluorescence image (“MM” in FIG. 9c) was taken in the resonance position of the chip. […] Data Processing The mean intensity of the 2 different groups of capture spots (cPM and cMM) was calculated for both experiments (incubation of 30 pM PM analyte and 30 pM MM analyte). In addition, the difference of the mean intensity cPM-cMM and the ratio cPM/cMM was calculated. h. […]

Compound	Fold change CYP 450 1A1 (rat) [1]	Fold change CYP 450 2B1 (rat) [2]	Fold change CYP 450 2B1 EST.(rat) [3]	Fold change CYP 450 2B2 (rat) [4]	Fold change CYP 450 3A1 (human) [5]	Fold change CYP 450 3A2 (rat) [6]	Fold change CYP 450 4A1 (rat) [7]	Fold change GAPDH (rat) [8]	Fold change β-actin (rat) [9]	mean intensity, cPM spots [10]	mean intensity, cMM spots [11]	difference of the mean intensity cPM − cMM [12]	ratio cPM/cMM of mean intensity [12]
CCC1(c2ccccc2)C(=O)NC(=O)NC1=O [phenobarbital, sodium salt]	1.6	25	16	32	3.2	2.5	1.6	2.3	2.1	–	–	–	–
Cy5-5′GTGTTGAGGTGT3′ (NTGTTGAGGTGT; 5' {Cy5}, sugars by position, backbone and the base at N not given here) [MM]	–	–	–	–	–	–	–	–	–	704 counts	2075 counts	−1371 counts	0.34
Cy5-5′GTGTTAAGGTGT3′ (NTGTTAAGGTGT; 5' {Cy5}, sugars by position, backbone and the base at N not given here) [PM]	–	–	–	–	–	–	–	–	–	1140 counts	24 counts	1116 counts	48
